Legend:
[1] = Belt curing performance (thumb-twist depth cure) in UViCure S105E resin; details: 24 μm film, under air, PI 2 wt %
Method: (§1) The photoinitiators were dissolved either in neat UViCure S105E resin or a hybrid acrylate/epoxy resin (prepared by mixing 60 wt parts UViCure S105E, 15 wt parts UViCure S130 and 25 wt parts SR492; all product are available from Sartomer). Formulations were prepared by combining all materials in the given proportions and then stirring at 30-40° C. until the samples were fully homogeneous; the formulations were then allowed to cool to room temperature. For all experiments, the formulations were cured on Leneta Form 3N-31 gloss finish paper at 6 μm and 24 μm film thickness using a belt-cure instrument; the films were prepared using a K-bar. All films were then cured under an LED lamp at a given belt speed. ‘Depth cure’ for each formulation was assessed using the ‘thumb-twist’ test (where no visible mark is made when a thumb is pressed down firmly onto the coating with a twisting motion), and from the belt speed; the calculated cure speed (in m/min) is given.

[2] = Belt curing performance (thumb-twist depth cure) in hybrid acrylate/epoxy resin; details: 24 μm film, under air, PI 2 wt %
Method: as §1

[3] = Molar extinction coefficient in acetonitrile; type: physicochemical
Method: (§2) The curing performance of individual products prepared above was assessed using real time FT-IR measurement. The photoinitiators were dissolved in cycloaliphatic epoxy resin UViCure S105 (available from Sartomer) at the indicated wt % loading, applied onto the FT-IR measurement plate and irradiated with the indicated LED light source. The polymerization rate and final reactive group conversion were determined by monitoring the change of the relevant infrared band near 900 cm^−1 corresponding to an epoxide ring during irradiation. The molar extinction coefficients for the photoinitiator products (ε, expressed in M^−1 cm^−1) were determined in acetonitrile at 10^-3 M or 10^-5 M concentration.

[4] = Colour index 'b' of formulations before and after polymerization; type: physicochemical; details: UViCure S105E, thin samples (20 μm), under air, 300 s irradiation
Method: The low yellowing characteristics can be measured by the Colour index ‘b’ value on cured films.
Formulations comprising the photoinitiators and neat UViCure S105E resin were prepared as described at example 2.

[5] = Real time FT-IR curing performance at 405 nm in UViCure S105/TMPTA (1:1); details: LED @405 nm (110 mW/cm^2), 20 μm thickness, laminated
Method: (§3) The curing performance of individual products prepared above was assessed using real time FT-IR measurement. The photoinitiators were dissolved either in neat trimethylolpropane triacrylate (TMPTA; available as SR351 from Sartomer) or in a 1:1 (w/w) mixture of TMPTA and UViCure S105 as indicated, applied onto the FT-IR measurement plate, laminated to prevent oxygen inhibition, and irradiated with the indicated LED light source. For the epoxy component, the polymerization rate and final reactive group conversion were determined by monitoring the change of the relevant infrared band near 900 cm^−1 corresponding to an epoxide ring. For the acrylate component, the C═C stretch band near 1625 cm^−1 was used.

[6] = Real time FT-IR curing performance in UViCure S105 at 365 and 385 nm; details: for Polymerization rate Rp/[M0]*100 / Final conversion: UViCure S105, 20 μm thickness, under air; for Final conversion: epoxide band; for cure speed compared with photoinitiators known from prior art such as Omnicat BL 550: LED lamp conditions, Example 2
Method: as §2

[7] = Real time FT-IR curing performance at 405 nm in neat TMPTA; details: 20 μm thickness, laminated; for Acrylate Polymerization rate Rp/[M0]*100: LED @405 nm (110 W/cm^2); for Acrylate Final conversion: LED @405 nm (110 mW/cm^2)
Method: as §3

[8] = LED 365 nm, 100% intensity (=70.1 mJ/cm^2), belt speed 40 m/min
[9] = LED @365 nm (120 W/cm^2), PI loading 1 wt % (Omnicat BL 550 4 wt %; Speedcure 938/CPTX 1/0.5 wt %)

| Structure (SMILES) | ε at 365 nm [3] [M⁻¹ cm⁻¹] | ε at 385 nm [3] [M⁻¹ cm⁻¹] | Polymerization rate Rp/[M0]*100 [6, 9] [s⁻¹] | Final conversion ([6]; LED @365 nm (120 W/cm^2)) [%] | Polymerization rate Rp/[M0]*100 ([6]; LED @385 nm (160 W/cm^2)) [s⁻¹] | Final conversion ([6]; LED @385 nm (160 W/cm^2)) [%] | also measured |
| --- | --- | --- | --- | --- | --- | --- | --- |
| CCCOc1ccc(Cl)c2c(=O)c3cc([S+](c4ccc(C)cc4)c4ccc(C(=O)c5ccccc5)cc4)ccc3sc12 (stereo not shown) [Photoinitiator 3, (4-benzoylphenyl)(8-chloro-9-oxo-5-propoxy-9H-thioxanthen-2-yl)(4-methylphenyl)sulfonium hexafluorophosphate] | 17066 | 17083 | 2.70 | 38 | 2.46 | 37 | Cure speed in UViCure S105E resin [1, 8]: 4.8 m/min; Cure speed in UViCure S105E resin ([1]; LED 395 nm, 40 m/min, 100% intensity (=164.5 mJ/cm^2)): 8.7 m/min; Cure speed in hybrid acrylate/epoxy resin [2, 8]: 2.2 m/min; Cure speed in hybrid acrylate/epoxy resin ([2]; LED 395 nm, 80 m/min, 50% intensity (=36.9 mJ/cm^2)): no cure; Colour index ‘b’ value After Polymerization ([4]; LED @365 nm (120 mW/cm^2)): 7.40; Colour index ‘b’ value Before Polymerization ([4]; LED @365 nm (120 mW/cm^2)): 11.28; Colour index ‘b’ value After Polymerization ([4]; LED @385 nm (160 mW/cm^2)): 7.48; Colour index ‘b’ value Before Polymerization ([4]; LED @385 nm (160 mW/cm^2)): 8.40; Acrylate Final conversion [5]: 75%; Acrylate Polymerization rate Rp/[M0]*100 [5]: 5.69 s⁻¹; Epoxy Final conversion [5]: 35%; Epoxy Polymerization rate Rp/[M0]*100 [5]: 2.43 s⁻¹; Acrylate Polymerization rate Rp/[M0]*100 [7]: 5.88 s⁻¹; Acrylate Final conversion [7]: 45% |
| COC(=O)COc1ccc2sc3ccc(-[s+]4c5ccccc5c(=O)c5cc(OCC(=O)OC)ccc54)cc3c(=O)c2c1 (stereo not shown) [Photoinitiator 6, 2-(2-methoxy-2-oxoethoxy)-10-[7-(2-methoxy-2-oxoethoxy)-9-oxo-9H-thioxanthen-2-yl]-9-oxo-9H-thioxanthen-10-ium Hexafluorophosphate] | 18314 | 24656 | 0.72 | 35 | 2.01 | 36 |  |
| CC(C)c1ccc2c(c1)c(=O)c1ccccc1[s+]2-c1ccc(Oc2ccccc2)cc1 (stereo not shown) [Photoinitiator 12, 9-oxo-10-(4-phenoxyphenyl)-2-(propan-2-yl)-9H-thioxanthen-10-ium Hexafluorophosphate] | 185 | 137 | 2.93 | 32 | 2.74 | 36 |  |
| CCCOc1ccc(Cl)c2c1[SH](c1ccc(Oc3ccccc3)cc1)c1ccccc1C2=O (stereo not shown) [Photoinitiator 16, 1-chloro-9-oxo-10-(4-phenoxyphenyl)-4-propoxy-9H-thioxanthen-10-ium hexafluorophosphate] | 20030 | 6830 | 2.88 | 40 | 3.71 | 38 |  |
| COc1ccc(-c2ccc(-[s+]3c4ccccc4c(=O)c4cc(C(C)C)ccc43)cc2)cc1 (stereo not shown) [Photoinitiator 26, 10-(4′-methoxy[1,1-biphenyl]-4-yl)-9-oxo-2-(propan-2-yl)-9H-thioxanthen-10-ium hexafluorophosphate] | 3600 | 1622 | 4.94 | 26 | 3.08 | 28 | cure speed compared with photoinitiators known from prior art such as Omnicat BL 550 [6]: higher cure speed |
| COc1ccccc1-c1cc(-[s+]2c3ccccc3c(=O)c3cc(C(C)C)ccc32)ccc1OC (stereo not shown) [Photoinitiator 28, 10-(2′,6-dimethoxy[1,1′-biphenyl]-3-yl)-9-oxo-2-(propan-2-yl)-9H-thioxanthen-10-ium hexafluorophosphate] | 426 | 268 | 2.29 | 34 | 5.78 | 36 |  |
| CCCOc1ccc(Cl)c2c(=O)c3ccccc3[s+](-c3ccc(-c4ccc(OC)cc4)cc3)c12 (stereo not shown) [Photoinitiator 32, 1-chloro-10-(4′-methoxy[1,1′-biphenyl]-4-yl)-9-oxo-4-propoxy-9H-thioxanthen-10-ium Hexafluorophosphate] | 4507 | 2055 | 3.73 | 28 | 4.86 | 33 | cure speed compared with photoinitiators known from prior art such as Omnicat BL 550 [6]: higher cure speed |
| CCc1cc(CC)c2sc3ccc(-[s+]4c5ccccc5c(=O)c5cc(CC)cc(CC)c54)cc3c(=O)c2c1 (stereo not shown) [Photoinitiator 40, 10-(5,7-diethyl-9-oxo-9H-thioxanthen-2-yl)-2,4-diethyl-9-oxo-9H-thioxanthen-10-ium Hexafluorophosphate] | 19117 | 15504 | 2.72 | 18 | 5.89 | 38 | Acrylate Final conversion [5]: 83%; Acrylate Polymerization rate Rp/[M0]*100 [5]: 10.81 s⁻¹; Epoxy Final conversion [5]: 52%; Epoxy Polymerization rate Rp/[M0]*100 [5]: 6.46 s⁻¹; Acrylate Polymerization rate Rp/[M0]*100 [7]: 5.86 s⁻¹; Acrylate Final conversion [7]: 65% |

From patent publication US20260217983A1, “SULFONIUM SALT PHOTOINITIATORS AND METHODS OF LED CURING A COMPOSITION WITH SAID SULFONIUM SALT PHOTOINITIATORS” (ARKEMA FRANCE, priority 2022, published 2026)
